What was measured:
Carbonic anhydrase 1 = Carbonic anhydrase 1 (Homo sapiens, UniProt P00915)
Description: Inhibitory activity against human cloned carbonic anhydrase I (hCA I)

Carbonic anhydrase 2 = Carbonic anhydrase 2 (Homo sapiens, UniProt P00918)
Description: Inhibitory activity against human cloned carbonic anhydrase II (hCA II)

Carbonic anhydrase 4 = molecular target: T1, Carbonic anhydrase 4 (Bos taurus, UniProt Q95323)
T1 sequence (Q95323 whole entry): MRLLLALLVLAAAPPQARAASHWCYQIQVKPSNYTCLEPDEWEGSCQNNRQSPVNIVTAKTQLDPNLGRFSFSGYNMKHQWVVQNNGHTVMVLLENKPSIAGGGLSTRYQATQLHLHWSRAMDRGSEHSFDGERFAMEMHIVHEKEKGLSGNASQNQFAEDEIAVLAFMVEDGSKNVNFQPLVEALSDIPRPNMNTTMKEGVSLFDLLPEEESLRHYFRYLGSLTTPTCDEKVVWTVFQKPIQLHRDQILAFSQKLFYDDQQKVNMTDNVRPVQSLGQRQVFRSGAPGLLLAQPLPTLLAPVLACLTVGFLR
Description: Inhibitory activity against carbonic anhydrase isolated from bovine lung microsome (bCA IV)

Sequence of Carbonic anhydrase 1 (P00915 whole entry): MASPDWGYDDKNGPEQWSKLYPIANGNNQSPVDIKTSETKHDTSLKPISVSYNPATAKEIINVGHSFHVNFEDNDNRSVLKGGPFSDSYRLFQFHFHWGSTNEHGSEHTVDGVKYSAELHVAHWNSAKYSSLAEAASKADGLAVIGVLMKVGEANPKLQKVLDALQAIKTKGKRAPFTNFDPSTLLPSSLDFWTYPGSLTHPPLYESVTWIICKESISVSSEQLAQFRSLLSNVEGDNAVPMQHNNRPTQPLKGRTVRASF

Row | Structure (SMILES) | Ki (Carbonic anhydrase 1) | Ki (Carbonic anhydrase 2) | Ki (Carbonic anhydrase 4)
1 | CC1(C)OC[C@@H]2O[C@@]3(C(=O)NS(N)(=O)=O)OC(C)(C)O[C@H]3[C@@H]2O1 | 0.75 µM | 0.068 µM | 0.425 µM
2 | CC1(C)O[C@@H]2O[C@@H](COS(N)(=O)=O)[C@H]3OC(C)(C)O[C@H]3[C@@H]2O1 | 400 µM | 13 µM | 27 µM
3 | CC1(C)O[C@H]2[C@@H](O1)[C@@H](C(=O)NNS(N)(=O)=O)O[C@@H]1OC(C)(C)O[C@@H]12 | > 100 µM | 15 µM | 30 µM
4 | CC1(C)O[C@@H]2O[C@@H](C(=O)NS(N)(=O)=O)[C@H]3OC(C)(C)O[C@H]3[C@@H]2O1 | > 100 µM | 25 µM | 46 µM
5 | NS(=O)(=O)O [SULFAMATE] | 21 µM | – | –

Other lines, results leading:

Row | Ki (Carbonic anhydrase 1) | Ki (Carbonic anhydrase 2) | Ki (Carbonic anhydrase 4) | Structure (SMILES)
6 | > 100 µM | > 100 µM | > 100 µM | CC1(C)O[C@@H]2[C@@H](CO[C@@]3(C(=O)NNS(N)(=O)=O)OC(C)(C)O[C@@H]23)O1
7 | 420 µM | 21 µM | 33 µM | CC1(C)OC[C@@H]2O[C@@]3(C(=O)NNS(N)(=O)=O)OC(C)(C)O[C@H]3[C@@H]2O1
8 | 1.2 µM | 0.071 µM | 0.13 µM | CC1(C)OC[C@@H]2O[C@@]3(COC(=O)NS(N)(=O)=O)OC(C)(C)O[C@H]3[C@@H]2O1
9 | > 100 µM | > 100 µM | > 100 µM | CC1(C)O[C@@H]2[C@@H](CO[C@@]3(C(=O)NS(N)(=O)=O)OC(C)(C)O[C@@H]23)O1
10 | 0.42 µM | 0.024 µM | 0.045 µM | CC1(C)O[C@@H]2[C@@H](CO[C@@]3(COC(=O)NS(N)(=O)=O)OC(C)(C)O[C@@H]23)O1

From ChEMBL document CHEMBL1136616, “Carbonic anhydrase inhibitors: SAR and X-ray crystallographic study for the interaction of sugar sulfamates/sulfamides with isozymes I, II and IV” (Bioorg Med Chem Lett, 2003)
